# Data as given in patent publication US20130310379A1, “MODULATORS OF METHYL MODIFYING ENZYMES, COMPOSITIONS AND USES THEREOF” (CONSTELLATION PHARMACEUTICALS, priority 2010, published 2013).
# What was measured:
# EZH2 = EZH2 (Homo sapiens, UniProt Q15910); assay: EZH2 assay: rPRC2 with biotinylated oligonucleosome substrates and 3H SAM, FlashPlate scintillation counting, IC50; assay type: biochemical; conditions: rPRC2, biotinylated oligonucleosome substrates, 3H SAM; read-out: EZH2 IC50
# Method in brief: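 rPRC2 (2 nM EZH2) pre-incubated 20 min with compound (80 to 0.16 uM, ten 2-fold steps), then 60 min reaction with 0.2 uM 3H SAM, 0.2 uM biotinylated oligonucleosomes, 3.6 uM H3K27me3 peptide in Tris pH 8.5. SAH/EDTA quench; 4-parameter IC50 fit.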
# Y641N EZH2 = Y641N EZH2 (Homo sapiens, UniProt Q15910, Y641N); assay: Y641N EZH2 assay: performed as the EZH2 assay, using reconstituted H3K27Me2 oligonucleosomes as substrate; assay type: biochemical
# Method: Assays were carried out by mixing rPRC2 together with biotinylated oligonucleosome substrates in the presence of the radio-labeled enzyme co-factor, S-adenosyl-L-methionine (^3H SAM) (Perkin Elmer) and monitoring the enzymatically mediated transfer of tritiated methyl groups from ^3H SAM to histone lysine residues. The amount of resulting tritated methylhistone product was measured by first capturing the biotinylated oligonuclesomes in streptavidin (SAV) coated FlashPlates (Perkin Elmer), followed by a wash step to remove un-reacted ^3H SAM, and then counting on a TopCount NXT 384 well plate scintillation counter (Perkin Elmer). The final assay conditions for EZH2 were as follows: 50 mM Tris Buffer pH 8.5, 1 mM DTT, 69 uM Brij-35 detergent, 5.0 mM MgCl2, 0.1 mg/mL BSA, 0.2 uM ^3H SAM, 0.2 uM biotinylated oligonucleosomes, 3.6 uM H3K27me3 peptide and 2 nM EZH2.
# Compound IC50 measurements were obtained as follows: Compounds were first dissolved in 100% DMSO as 10 mM stock solutions. […] A 12.5 uL volume of the HMT enzyme, H3K27me3 peptide and oligonucleosome substrate in assay buffer was added to each well of the assay plate using a Multidrop Combi (ThermoFisher). Compounds were pre-incubated with the enzyme for 20 min, followed by initiation of the methyltransferase reaction by addition of 12.5 uL of 3H SAM in assay buffer (final volume=25 uL). The final concentrations of compounds ranged from a top default concentration of 80 uM down to 0.16 uM in ten 2-fold dilution steps. Reactions were carried out for 60 minutes and quenched with 20 uL per well of 1.96 mM SAH, 50 mM Tris PH 8.5, 200 mM EDTA. Stopped reactions were transferred to SAV coated Flashplates (Perkin Elmer), incubated for 120 min, washed with a plate washer, and then read on the TopCount NXT (1.0 min/well) to measure the amount of methylhistone product formed during the reaction. The amount of methylhistone product was compared with the amount of product formed in the 0% and 100% inhibition control wells allowing the calculation of % Inhibition in the presence of the individual compounds at various concentrations. IC50's were computed using a 4 parameter fit non-linear curve fitting software package (XLFIT, part of the database package, ActivityBase (IDBS)) where the four parameters were IC50, Hill slope, pre-transitional baseline (0% INH), and post-transitional baseline (100% INH); with the latter two parameters being fixed to zero and 100%, respectively, by default.
# EZH2, sequence (Q15910 whole entry): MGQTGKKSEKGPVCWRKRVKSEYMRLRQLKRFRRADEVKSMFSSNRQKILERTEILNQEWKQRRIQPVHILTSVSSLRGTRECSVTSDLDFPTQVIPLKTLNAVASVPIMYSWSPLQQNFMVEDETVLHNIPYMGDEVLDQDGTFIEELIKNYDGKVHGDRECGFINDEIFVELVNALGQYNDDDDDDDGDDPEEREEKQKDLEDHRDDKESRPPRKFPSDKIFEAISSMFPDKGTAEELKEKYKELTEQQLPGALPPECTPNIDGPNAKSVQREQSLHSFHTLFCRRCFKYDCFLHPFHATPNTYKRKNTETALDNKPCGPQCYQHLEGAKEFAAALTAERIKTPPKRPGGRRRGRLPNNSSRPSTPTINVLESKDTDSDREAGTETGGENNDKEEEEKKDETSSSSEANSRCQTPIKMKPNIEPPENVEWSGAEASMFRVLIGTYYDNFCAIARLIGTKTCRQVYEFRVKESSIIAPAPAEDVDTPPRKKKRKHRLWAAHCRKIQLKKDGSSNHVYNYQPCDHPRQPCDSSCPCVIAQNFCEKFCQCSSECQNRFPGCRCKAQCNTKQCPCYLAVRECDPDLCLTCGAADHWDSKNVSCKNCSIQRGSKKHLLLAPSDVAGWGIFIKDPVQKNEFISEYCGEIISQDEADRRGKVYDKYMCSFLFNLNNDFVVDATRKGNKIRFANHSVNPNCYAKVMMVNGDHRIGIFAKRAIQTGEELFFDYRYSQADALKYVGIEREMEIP
# EZH2, sequence (O75530 whole entry partner): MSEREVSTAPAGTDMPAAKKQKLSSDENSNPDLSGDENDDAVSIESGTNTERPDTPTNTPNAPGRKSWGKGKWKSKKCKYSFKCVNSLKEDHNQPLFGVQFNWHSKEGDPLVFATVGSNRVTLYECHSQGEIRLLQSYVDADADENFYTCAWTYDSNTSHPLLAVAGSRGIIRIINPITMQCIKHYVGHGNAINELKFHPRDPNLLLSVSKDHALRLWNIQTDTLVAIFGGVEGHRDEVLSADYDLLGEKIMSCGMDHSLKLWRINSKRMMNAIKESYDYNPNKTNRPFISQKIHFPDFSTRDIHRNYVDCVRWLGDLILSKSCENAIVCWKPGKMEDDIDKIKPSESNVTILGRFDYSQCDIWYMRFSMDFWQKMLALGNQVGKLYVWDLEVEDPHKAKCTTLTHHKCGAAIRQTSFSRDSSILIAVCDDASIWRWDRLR
# EZH2, sequence (Q15022 whole entry partner): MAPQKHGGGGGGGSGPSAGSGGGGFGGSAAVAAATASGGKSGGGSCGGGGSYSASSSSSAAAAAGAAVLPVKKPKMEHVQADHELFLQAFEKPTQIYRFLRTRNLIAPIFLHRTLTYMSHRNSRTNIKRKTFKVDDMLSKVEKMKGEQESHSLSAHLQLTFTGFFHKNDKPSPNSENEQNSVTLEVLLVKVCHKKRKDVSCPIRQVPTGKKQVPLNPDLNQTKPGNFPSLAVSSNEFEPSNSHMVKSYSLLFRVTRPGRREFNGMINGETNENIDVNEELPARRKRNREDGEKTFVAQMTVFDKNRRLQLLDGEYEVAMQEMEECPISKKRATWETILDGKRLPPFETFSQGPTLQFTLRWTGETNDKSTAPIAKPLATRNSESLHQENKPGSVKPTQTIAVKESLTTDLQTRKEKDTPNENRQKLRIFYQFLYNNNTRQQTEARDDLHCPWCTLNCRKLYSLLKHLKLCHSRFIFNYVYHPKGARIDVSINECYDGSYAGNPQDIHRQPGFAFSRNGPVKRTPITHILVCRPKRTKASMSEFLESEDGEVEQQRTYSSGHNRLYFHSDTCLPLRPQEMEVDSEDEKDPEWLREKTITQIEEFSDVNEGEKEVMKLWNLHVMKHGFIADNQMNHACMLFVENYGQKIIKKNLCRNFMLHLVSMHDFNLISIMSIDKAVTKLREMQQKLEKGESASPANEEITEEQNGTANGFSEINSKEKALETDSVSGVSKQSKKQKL
# Y641N EZH2, sequence (Q15910 whole entry Y641N): as the sequence (Q15910 whole entry) above, with Y641N counted along it
# Y641N EZH2, sequence (O75530 whole entry partner): as the sequence (O75530 whole entry partner) above
# Y641N EZH2, sequence (Q15022 whole entry partner): as the sequence (Q15022 whole entry partner) above
Compound,IC50 (EZH2) [µM],IC50 (Y641N EZH2) [µM]
CC1(C)CC(NC(=O)c2ccc(Oc3cccc(N4CCOCC4)c3)c(Cl)c2)CC(C)(C)N1 [Compound I-590],20 to 80,> 80
CC1(C)CC(NC(=O)c2ccc(COc3cccc(Br)c3)c(Br)c2)CC(C)(C)N1 [Compound I-216],5 to 20,20 to 80
CC(Oc1cccc(Oc2ccc(C(=O)NC3CC(C)(C)NC(C)(C)C3)cc2Cl)c1C#N)C(N)=O (centres unmarked) [Compound I-326],5 to 20,> 80
CC1(C)CC(NC(=O)c2ccc(C#Cc3ccccc3)cc2)CC(C)(C)N1 [Compound I-173],5 to 20,5 to 20
CC1(C)CC(NC(=O)c2ccc(N3CCC(c4ccccc4)C3)c(Cl)c2)CC(C)(C)N1 (centres unmarked) [Compound I-413],20 to 80,> 80
CC(=O)Nc1ccc(-c2cccc(OCc3ccc(C(=O)NC4CC(C)(C)NC(C)(C)C4)cc3)c2)cc1 [Compound I-167],20 to 80,20 to 80
CC(=O)N1CCN(c2cccc(Oc3ccc(C(=O)NC4CC(C)(C)NC(C)(C)C4)cc3Cl)c2)CC1 [Compound I-499],20 to 80,> 80
CC1(C)CC(N2Cc3cc(Oc4ccccc4C#N)c(Cl)cc3C2=O)CC(C)(C)N1 [Compound I-356],> 80,> 80
CN1CCN(c2cccc(Oc3ccc(C(=O)NC4CC(C)(C)NC(C)(C)C4)cc3Cl)c2)CC1 [Compound I-417],20 to 80,> 80
CC1(C)CC(NC(=O)c2ccc(COc3ccccc3Br)cc2)CC(C)(C)N1 [Compound I-185],20 to 80,> 80
CC1(C)CC(NC(=O)c2ccc(Oc3cccc(-c4ccncc4)c3C#N)c(Cl)c2)CC(C)(C)N1 [Compound I-339],< 5,< 5
CC1(C)CC(NC(=O)c2ccc(Oc3cccc(-c4cncc(C#N)c4)c3C#N)c(Cl)c2)CC(C)(C)N1 [Compound I-571],< 5,< 5
N#Cc1ccccc1Oc1ccc(C(=O)NC2CCSCC2)cc1Cl [Compound I-427],> 80,> 80
Cc1cc(C(=O)NC2CC(C)(C)NC(C)(C)C2)ccc1Oc1cccc(-c2ccccc2)c1C#N [Compound I-260],< 5,20 to 80
CC1(C)CC(NC(=O)c2ccc(Oc3cccc(N4CCNCC4)c3)c(Cl)c2)CC(C)(C)N1 [Compound I-493],20 to 80,> 80
Cc1cc(C(=O)NC2CC(C)(C)NC(C)(C)C2)ccc1Oc1ccccc1C#N [Compound I-223],< 5,5 to 20
CN(C)C(=O)Cn1cc(-c2cccc(Oc3ccc(C(=O)NC4CC(C)(C)NC(C)(C)C4)cc3Cl)c2C#N)cn1 [Compound I-395],< 5,5 to 20
COc1cc(-c2cccc(Oc3ccc(C(=O)NC4CC(C)(C)NC(C)(C)C4)cc3Cl)c2C#N)cc(C)n1 [Compound I-573],< 5,5 to 20
CC1(C)CC(NC(=O)c2ccc(Oc3cccc(-c4ccnc(N)c4)c3C#N)c(Cl)c2)CC(C)(C)N1 [Compound I-375],< 5,< 5
CC1(C)CC(NC(=O)c2ccc(C(=O)c3ccccc3)cc2)CC(C)(C)N1 [Compound I-431],20 to 80,> 80
CC1OC(=O)c2c(Oc3ccc(C(=O)NC4CC(C)(C)NC(C)(C)C4)cc3Cl)cccc21 (centres unmarked) [Compound I-401],< 5,< 5
CC1(C)CC(NC(=O)c2ccc(Oc3cccc(N4CCOCC4=O)c3)c(Cl)c2)CC(C)(C)N1 [Compound I-397],5 to 20,> 80
CC1(C)CC(NC(=O)c2ccc(Oc3cccc(-c4ccncc4Cl)c3C#N)c(Cl)c2)CC(C)(C)N1 [Compound I-586],< 5,< 5

# Results, then the compound that gave them:
IC50 (EZH2) [µM],IC50 (Y641N EZH2) [µM],Compound
< 5,< 5,CC1(C)CC(NC(=O)c2ccc(Oc3cccc(-c4cn[nH]c4)c3C#N)c(Br)c2)CC(C)(C)N1 [Compound I-347]
< 5,5 to 20,CC1(C)CC(NC(=O)c2ccc(Oc3ccccc3C#N)c(CCc3ccccc3)c2)CC(C)(C)N1 [Compound I-199]
< 5,20 to 80,CC1(C)CC(NC(=O)c2ccc(Oc3ccccc3C#N)c(F)c2)CC(C)(C)N1 [Compound I-217]
< 5,< 5,CC1(C)CC(NC(=O)c2ccc(Oc3cccc(-c4cccnc4)c3C#N)c(Br)c2)CC(C)(C)N1 [Compound I-364]
< 5,5 to 20,CC1(C)CC(NC(=O)c2ccc(Oc3cccc4cnccc34)c(Cl)c2)CC(C)(C)N1 [Compound I-324]
< 5,5 to 20,CC1(C)CC(NC(=O)c2ccc(Oc3ccccc3-c3cnc4ccccc4c3)c(Cl)c2)CC(C)(C)N1 [Compound I-320]
< 5,< 5,CC1(C)CC(NC(=O)c2ccc(Oc3cccc(-c4cccnc4)c3C#N)c(Cl)c2)CC(C)(C)N1 [Compound I-308]
< 5,< 5,CC1(C)CC(NC(=O)c2ccc(Oc3cccc(-c4ccccn4)c3C#N)c(Cl)c2)CC(C)(C)N1 [Compound I-367]
< 5,< 5,Cc1cc(-c2cccc(Oc3ccc(C(=O)NC4CC(C)(C)NC(C)(C)C4)cc3Cl)c2C#N)ccn1 [Compound I-584]
< 5,5 to 20,"CC1(C)CC(/C=C/c2ccc(Oc3cccc(-c4ccncn4)c3C#N)c(Cl)c2)CC(C)(C)N1 [Compound I-592, (E)-2-(2-chloro-4-(2-(2,2,6,6-tetramethylpiperidin-4-yl)vinyl)phenoxy)-6-(pyrimidin-4-yl)benzonitrile]"
< 5,20 to 80,CC1(C)CC(NC(=O)c2ccc(Oc3cccc(-c4ccnnc4)c3C#N)c(Cl)c2)CC(C)(C)C1O (centres unmarked) [Compound I-548]
< 5,< 5,CC1(C)CC(NC(=O)c2ccc(Oc3cccc(Br)c3C#N)c(Cl)c2)CC(C)(C)N1 [Compound I-254]
< 5,< 5,CC1(C)CC(NC(=O)c2ccc(Oc3cccc(Cl)c3C#N)c(Cl)c2)CC(C)(C)N1 [Compound I-256]
< 5,< 5,CCc1cccc(Oc2ccc(C(=O)NC3CC(C)(C)NC(C)(C)C3)cc2Br)c1C#N [Compound I-369]
< 5,< 5,Cc1cc(C(=O)NC2CC(C)(C)NC(C)(C)C2)ccc1Oc1cccc(-c2cn[nH]c2)c1C#N [Compound I-262]
< 5,5 to 20,CC1(C)CC(NC(=O)c2ccc(Oc3cccc(-c4cnccn4)c3C#N)c(Cl)c2)CC(C)(C)N1 [Compound I-428]
< 5,5 to 20,CC1(C)CC(NC(=O)c2ccc(Oc3cccc(-c4cn[nH]c4)c3C#N)c(F)c2)CC(C)(C)N1 [Compound I-398]
< 5,5 to 20,CN(C)c1cccc(Oc2ccc(C(=O)NC3CC(C)(C)NC(C)(C)C3)cc2Cl)c1C#N [Compound I-334]
< 5,< 5,"CC1(C)CC(OC(=O)c2ccc(Oc3cccc(-c4ccnnc4)c3C#N)c(Cl)c2)CC(C)(C)N1 [Compound I-504, 2,2,6,6-tetramethylpiperidin-4-yl 3-chloro-4-(2-cyano-3-(pyridazin-4-yl)phenoxy)benzoate]"
< 5,20 to 80,CNCc1cccc(Oc2ccc(C(=O)NC3CC(C)(C)NC(C)(C)C3)cc2Cl)c1C#N [Compound I-381]
